Measurements: PMC12196347, “Evaluating Triazole-Substituted Pyrrolopyrimidines as CSF1R Inhibitors” (Molecules, 2025)
Where two headings read alike, the source gives them in different places.

How the values were obtained:
Type in all cases: biochemical
JAK2 = target: T1, JAK2 (Homo sapiens, UniProt O60674); experiment: Kinase panel profiling: JAK2; conditions: ATP equal to KM
T1 construct: purchased Thermo Fisher Scientific (Invitrogen) SelectScreen (Z'-LYTE)

JAK1 = target: T2, JAK1 (Homo sapiens, UniProt P23458); experiment: Kinase panel profiling: JAK1; conditions: ATP equal to KM
T2 construct: purchased Thermo Fisher Scientific (Invitrogen) SelectScreen (Z'-LYTE)

AKT1 (PKB alpha) = target: T3, AKT1 (PKB alpha) (Homo sapiens, UniProt P31749); experiment: Kinase panel profiling: AKT1; conditions: ATP equal to KM
T3 construct: purchased Thermo Fisher Scientific (Invitrogen) SelectScreen (Z'-LYTE)

CSF1R = target: T4, CSF1R (Homo sapiens, UniProt P07333); experiment: CSF1R enzymatic inhibition, TR-FRET-based LANCE Ultra assay; conditions: single 8-point titrations, ATP concentration 25 µM, read-out: Enz. IC50
T4 sequence (P07333 539-972 limits assumed): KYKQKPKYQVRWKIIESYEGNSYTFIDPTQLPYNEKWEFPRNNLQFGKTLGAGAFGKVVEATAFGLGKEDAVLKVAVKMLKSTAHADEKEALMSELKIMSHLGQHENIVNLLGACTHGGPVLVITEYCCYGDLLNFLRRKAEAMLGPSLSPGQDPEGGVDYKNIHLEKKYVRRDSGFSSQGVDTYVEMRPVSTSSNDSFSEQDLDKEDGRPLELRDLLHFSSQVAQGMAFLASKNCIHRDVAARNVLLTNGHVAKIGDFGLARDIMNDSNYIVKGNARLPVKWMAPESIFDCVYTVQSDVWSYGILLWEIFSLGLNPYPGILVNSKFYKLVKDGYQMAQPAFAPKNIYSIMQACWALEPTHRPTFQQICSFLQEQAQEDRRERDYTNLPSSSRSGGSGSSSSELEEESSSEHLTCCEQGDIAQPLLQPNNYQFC

PAK1 = target: T5, PAK1 (Homo sapiens, UniProt Q13153); experiment: Kinase panel profiling: PAK1; conditions: ATP equal to KM
T5 construct: purchased Thermo Fisher Scientific (Invitrogen) SelectScreen (Z'-LYTE)

NEK1 = target: T6, NEK1 (Homo sapiens, UniProt Q96PY6); experiment: Kinase panel profiling: NEK1; conditions: ATP equal to KM
T6 construct: purchased Thermo Fisher Scientific (Invitrogen) SelectScreen (Z'-LYTE)

SRC = SRC (Homo sapiens, UniProt P12931); experiment: Kinase panel profiling: SRC; conditions: ATP equal to KM
FLT3 = target: T7, FLT3 (Homo sapiens, UniProt P36888); experiment: Kinase panel profiling: FLT3; conditions: ATP equal to KM
T7 construct: purchased Thermo Fisher Scientific (Invitrogen) SelectScreen (Z'-LYTE)
T7 sequence (P36888 27-993): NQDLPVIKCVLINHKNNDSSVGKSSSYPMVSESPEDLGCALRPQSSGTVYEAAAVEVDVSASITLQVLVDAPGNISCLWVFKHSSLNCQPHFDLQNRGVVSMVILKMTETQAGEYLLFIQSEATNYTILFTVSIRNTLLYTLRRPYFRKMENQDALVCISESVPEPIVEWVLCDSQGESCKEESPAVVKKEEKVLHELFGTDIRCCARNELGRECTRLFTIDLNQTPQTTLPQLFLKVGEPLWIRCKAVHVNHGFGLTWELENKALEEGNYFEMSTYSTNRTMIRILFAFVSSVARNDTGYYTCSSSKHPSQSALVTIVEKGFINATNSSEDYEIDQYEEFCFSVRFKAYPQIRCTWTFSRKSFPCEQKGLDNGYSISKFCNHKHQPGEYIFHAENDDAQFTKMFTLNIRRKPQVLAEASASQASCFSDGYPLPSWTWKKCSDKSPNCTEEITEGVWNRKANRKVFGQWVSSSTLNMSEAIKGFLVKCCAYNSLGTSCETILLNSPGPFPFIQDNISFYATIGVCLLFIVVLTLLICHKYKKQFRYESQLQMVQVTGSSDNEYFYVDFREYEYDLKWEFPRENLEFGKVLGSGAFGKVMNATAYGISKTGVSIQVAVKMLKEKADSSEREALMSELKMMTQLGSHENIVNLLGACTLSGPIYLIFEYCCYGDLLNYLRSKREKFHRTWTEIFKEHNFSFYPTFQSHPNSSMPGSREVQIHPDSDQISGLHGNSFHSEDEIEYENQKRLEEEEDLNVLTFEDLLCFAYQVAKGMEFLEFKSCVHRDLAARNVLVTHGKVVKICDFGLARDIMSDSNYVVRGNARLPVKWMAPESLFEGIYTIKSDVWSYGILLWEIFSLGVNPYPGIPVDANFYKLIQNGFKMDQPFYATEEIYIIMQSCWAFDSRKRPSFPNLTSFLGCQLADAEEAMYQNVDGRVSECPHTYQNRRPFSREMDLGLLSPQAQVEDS

FRAP1 (mTOR) = target: T8, FRAP1 (mTOR) (Homo sapiens, UniProt P42345); experiment: Kinase panel profiling: FRAP1; conditions: ATP equal to KM
T8 construct: purchased Thermo Fisher Scientific (Invitrogen) SelectScreen (Z'-LYTE)

LYN B = target: T9, LYN B (Homo sapiens, UniProt P07948); experiment: Kinase panel profiling: LYN B; conditions: ATP equal to KM
T9 construct: purchased Thermo Fisher Scientific (Invitrogen) SelectScreen (Z'-LYTE)

LYN A = target: T10, LYN A (Homo sapiens, UniProt P07948); experiment: Kinase panel profiling: LYN A; conditions: ATP equal to KM
T10 construct: purchased Thermo Fisher Scientific (Invitrogen) SelectScreen (Z'-LYTE)

CDK1/cyclin B = target: T11, CDK1/cyclin B (Homo sapiens, UniProt P06493); experiment: Kinase panel profiling: CDK1/cyclin B; conditions: ATP equal to KM
T11 construct: purchased Thermo Fisher Scientific (Invitrogen) SelectScreen (Z'-LYTE)

KIT = target: T12, KIT (Homo sapiens, UniProt P10721); experiment: Kinase panel profiling: KIT; conditions: ATP equal to KM
T12 construct: purchased Thermo Fisher Scientific (Invitrogen) SelectScreen (Z'-LYTE)

PLK1 = PLK1 (Homo sapiens, UniProt P53350); experiment: Kinase panel profiling: PLK1; conditions: ATP equal to KM
[1] = 1000 nM test concentration, read-out: Average inhibition (%)
[2] = 1000 nM, first data point, read-out: Inhibition (%)
[3] = 1000 nM, second data point, read-out: Inhibition (%)

T2 sequence (P23458 whole entry): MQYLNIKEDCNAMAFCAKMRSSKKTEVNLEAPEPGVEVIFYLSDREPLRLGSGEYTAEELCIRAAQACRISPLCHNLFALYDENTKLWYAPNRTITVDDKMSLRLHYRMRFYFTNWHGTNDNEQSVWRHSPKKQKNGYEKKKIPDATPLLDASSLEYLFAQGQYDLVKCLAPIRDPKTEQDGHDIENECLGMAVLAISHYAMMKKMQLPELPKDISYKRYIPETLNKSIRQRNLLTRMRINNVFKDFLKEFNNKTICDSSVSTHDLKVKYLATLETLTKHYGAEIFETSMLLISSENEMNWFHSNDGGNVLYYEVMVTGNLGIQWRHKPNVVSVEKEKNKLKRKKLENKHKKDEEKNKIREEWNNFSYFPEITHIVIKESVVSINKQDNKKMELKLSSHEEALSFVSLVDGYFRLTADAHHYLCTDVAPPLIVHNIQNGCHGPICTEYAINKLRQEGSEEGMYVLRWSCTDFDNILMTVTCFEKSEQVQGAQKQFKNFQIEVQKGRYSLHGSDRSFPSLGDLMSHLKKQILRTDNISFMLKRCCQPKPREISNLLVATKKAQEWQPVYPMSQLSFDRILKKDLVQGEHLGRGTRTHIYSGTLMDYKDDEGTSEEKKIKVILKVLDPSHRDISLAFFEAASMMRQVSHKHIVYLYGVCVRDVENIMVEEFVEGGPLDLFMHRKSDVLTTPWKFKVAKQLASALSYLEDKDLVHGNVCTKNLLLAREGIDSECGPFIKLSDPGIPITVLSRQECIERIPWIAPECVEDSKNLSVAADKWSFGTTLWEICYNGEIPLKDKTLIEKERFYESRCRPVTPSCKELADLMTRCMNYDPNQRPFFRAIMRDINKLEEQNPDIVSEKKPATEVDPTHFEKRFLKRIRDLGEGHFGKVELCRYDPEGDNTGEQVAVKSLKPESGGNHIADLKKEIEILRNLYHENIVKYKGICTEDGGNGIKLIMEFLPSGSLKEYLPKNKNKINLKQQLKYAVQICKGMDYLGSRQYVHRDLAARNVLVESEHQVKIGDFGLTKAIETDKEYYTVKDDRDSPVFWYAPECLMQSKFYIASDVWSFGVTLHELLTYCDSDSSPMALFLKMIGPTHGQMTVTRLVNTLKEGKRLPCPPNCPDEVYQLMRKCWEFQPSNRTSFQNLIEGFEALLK
T1 sequence (O60674 whole entry): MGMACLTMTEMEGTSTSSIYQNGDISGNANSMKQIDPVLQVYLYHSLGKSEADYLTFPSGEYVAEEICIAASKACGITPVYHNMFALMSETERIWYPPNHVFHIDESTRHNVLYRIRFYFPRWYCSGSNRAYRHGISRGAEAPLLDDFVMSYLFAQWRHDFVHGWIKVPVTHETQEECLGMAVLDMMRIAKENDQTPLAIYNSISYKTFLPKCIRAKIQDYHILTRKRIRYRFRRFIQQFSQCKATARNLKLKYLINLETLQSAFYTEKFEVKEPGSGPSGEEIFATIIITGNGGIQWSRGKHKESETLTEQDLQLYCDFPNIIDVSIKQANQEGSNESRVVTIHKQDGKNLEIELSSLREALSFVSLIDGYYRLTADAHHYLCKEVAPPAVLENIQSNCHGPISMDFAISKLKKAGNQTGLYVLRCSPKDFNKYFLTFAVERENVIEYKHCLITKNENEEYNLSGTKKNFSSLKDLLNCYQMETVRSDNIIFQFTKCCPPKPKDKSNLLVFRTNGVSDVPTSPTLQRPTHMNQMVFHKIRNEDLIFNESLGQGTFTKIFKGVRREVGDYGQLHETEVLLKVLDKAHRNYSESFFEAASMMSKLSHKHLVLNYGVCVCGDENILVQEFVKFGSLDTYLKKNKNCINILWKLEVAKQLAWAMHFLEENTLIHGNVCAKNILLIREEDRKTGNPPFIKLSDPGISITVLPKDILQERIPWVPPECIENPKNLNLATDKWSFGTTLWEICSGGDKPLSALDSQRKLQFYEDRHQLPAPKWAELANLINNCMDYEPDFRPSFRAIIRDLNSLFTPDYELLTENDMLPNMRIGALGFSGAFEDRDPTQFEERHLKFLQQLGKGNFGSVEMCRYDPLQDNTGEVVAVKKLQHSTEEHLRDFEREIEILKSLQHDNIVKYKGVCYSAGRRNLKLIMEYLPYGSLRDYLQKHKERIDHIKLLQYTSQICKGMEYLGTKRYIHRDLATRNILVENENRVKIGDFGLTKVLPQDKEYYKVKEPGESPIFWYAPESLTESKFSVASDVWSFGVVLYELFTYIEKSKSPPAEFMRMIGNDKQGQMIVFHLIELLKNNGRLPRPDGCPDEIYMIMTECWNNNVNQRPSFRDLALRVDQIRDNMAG
T3 sequence (P31749 whole entry): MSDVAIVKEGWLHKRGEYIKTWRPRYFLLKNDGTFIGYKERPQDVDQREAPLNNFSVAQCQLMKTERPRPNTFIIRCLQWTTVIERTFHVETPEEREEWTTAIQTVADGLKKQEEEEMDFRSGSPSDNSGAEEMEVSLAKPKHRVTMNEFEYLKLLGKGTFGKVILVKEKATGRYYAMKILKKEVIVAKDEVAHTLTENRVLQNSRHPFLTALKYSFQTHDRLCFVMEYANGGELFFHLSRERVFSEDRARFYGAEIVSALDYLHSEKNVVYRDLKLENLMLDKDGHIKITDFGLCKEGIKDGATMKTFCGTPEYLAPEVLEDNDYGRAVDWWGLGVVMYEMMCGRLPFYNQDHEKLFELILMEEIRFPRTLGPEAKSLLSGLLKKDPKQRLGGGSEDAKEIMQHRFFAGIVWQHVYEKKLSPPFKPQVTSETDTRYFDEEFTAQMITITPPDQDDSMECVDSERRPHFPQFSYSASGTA
T5 sequence (Q13153 whole entry): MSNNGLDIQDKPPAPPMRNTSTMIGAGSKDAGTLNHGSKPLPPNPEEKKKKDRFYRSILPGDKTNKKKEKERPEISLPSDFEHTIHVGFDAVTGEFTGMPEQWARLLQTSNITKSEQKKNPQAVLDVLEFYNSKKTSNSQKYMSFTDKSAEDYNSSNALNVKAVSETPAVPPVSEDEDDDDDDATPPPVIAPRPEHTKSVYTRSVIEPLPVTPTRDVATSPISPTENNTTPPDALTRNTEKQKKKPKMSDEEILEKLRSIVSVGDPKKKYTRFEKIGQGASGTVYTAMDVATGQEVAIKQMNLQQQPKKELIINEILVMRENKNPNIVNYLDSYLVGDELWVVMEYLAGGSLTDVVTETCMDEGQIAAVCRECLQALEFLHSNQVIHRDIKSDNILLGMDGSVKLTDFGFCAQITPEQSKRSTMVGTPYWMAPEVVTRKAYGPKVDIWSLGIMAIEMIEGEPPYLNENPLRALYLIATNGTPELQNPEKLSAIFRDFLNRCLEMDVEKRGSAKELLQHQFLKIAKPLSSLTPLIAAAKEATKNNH
T9 sequence (P07948 1-491 isoform P07948-2): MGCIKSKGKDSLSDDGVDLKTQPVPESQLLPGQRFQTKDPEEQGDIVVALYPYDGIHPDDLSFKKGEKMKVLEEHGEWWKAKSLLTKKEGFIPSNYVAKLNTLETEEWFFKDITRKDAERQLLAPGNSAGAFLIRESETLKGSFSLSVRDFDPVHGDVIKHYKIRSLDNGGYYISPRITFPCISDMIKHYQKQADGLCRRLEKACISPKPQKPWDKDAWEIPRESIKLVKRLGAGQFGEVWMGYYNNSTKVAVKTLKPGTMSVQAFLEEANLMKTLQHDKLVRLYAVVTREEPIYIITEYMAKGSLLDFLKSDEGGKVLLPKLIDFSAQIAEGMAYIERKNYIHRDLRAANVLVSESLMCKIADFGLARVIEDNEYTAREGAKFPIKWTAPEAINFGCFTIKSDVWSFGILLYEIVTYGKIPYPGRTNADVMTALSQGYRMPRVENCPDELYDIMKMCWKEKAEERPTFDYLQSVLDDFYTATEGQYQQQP
Sequence of PLK1 (P53350 whole entry): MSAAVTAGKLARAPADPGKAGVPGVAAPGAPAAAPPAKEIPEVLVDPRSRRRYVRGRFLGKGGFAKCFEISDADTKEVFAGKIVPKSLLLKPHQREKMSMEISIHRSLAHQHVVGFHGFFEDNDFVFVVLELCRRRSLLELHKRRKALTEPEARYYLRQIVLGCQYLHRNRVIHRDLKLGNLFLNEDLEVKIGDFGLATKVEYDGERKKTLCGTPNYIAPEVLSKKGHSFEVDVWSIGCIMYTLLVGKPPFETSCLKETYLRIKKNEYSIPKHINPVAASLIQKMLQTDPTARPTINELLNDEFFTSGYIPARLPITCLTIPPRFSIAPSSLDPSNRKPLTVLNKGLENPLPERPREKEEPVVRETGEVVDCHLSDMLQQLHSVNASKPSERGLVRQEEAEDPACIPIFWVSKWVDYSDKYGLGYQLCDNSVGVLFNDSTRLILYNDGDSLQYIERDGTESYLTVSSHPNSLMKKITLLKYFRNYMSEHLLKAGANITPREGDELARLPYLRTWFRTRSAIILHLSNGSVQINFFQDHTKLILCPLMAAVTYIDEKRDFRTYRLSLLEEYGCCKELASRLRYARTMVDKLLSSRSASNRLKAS
Sequence of SRC (P12931 whole entry): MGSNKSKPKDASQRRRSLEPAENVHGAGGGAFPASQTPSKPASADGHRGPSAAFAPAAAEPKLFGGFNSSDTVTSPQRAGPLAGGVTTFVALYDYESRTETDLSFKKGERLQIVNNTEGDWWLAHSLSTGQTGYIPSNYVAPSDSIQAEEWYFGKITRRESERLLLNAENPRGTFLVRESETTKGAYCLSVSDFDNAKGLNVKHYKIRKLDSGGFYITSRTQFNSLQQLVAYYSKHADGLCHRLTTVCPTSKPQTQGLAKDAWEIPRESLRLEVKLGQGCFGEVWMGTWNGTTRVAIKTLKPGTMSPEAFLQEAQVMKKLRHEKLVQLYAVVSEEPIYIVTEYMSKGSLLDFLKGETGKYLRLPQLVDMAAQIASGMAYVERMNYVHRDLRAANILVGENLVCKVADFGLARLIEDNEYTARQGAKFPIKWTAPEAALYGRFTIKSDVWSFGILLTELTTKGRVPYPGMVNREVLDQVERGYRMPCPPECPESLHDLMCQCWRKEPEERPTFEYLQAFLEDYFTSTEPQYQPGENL

In the case of `Cc1cccc(CN(C)c2ncnc3[nH]c(-c4cn(Cc5cccnc5)nn4)cc23)c1` [Compound 27a, N-Methyl-N-(3-methylbenzyl)-6-(1-(pyridin-3-ylmethyl)-1H-1,2,3-triazol-4-yl)-7H-pyrrolo[2,3-d]pyrimidin-4-amine], the inhibition at 1 µM (JAK2; [1]) is reported as 26%, the inhibition at 1 µM (JAK2; [2]) is reported as 25% and the inhibition at 1 µM (JAK2; [3]) is reported as 26%. It also gave an inhibition at 1 µM (JAK1; [1]) of 9%, an inhibition at 1 µM (JAK1; [2]) of 22% and an inhibition at 1 µM (JAK1; [3]) of -3%. For the same molecule, the inhibition at 1 µM (AKT1 (PKB alpha); [1]) was 2%, the inhibition at 1 µM (AKT1 (PKB alpha); [2]) was 3% and the inhibition at 1 µM (AKT1 (PKB alpha); [3]) was 1%. For the same molecule, the IC50 (CSF1R) was < 1 nM, the inhibition at 1 µM (PAK1; [1]) was 2% and the inhibition at 1 µM (PAK1; [2]) was 4%. It also gave an inhibition at 1 µM (PAK1; [3]) of 0%, an inhibition at 1 µM (NEK1; [1]) of 28% and an inhibition at 1 µM (NEK1; [2]) of 28%. The inhibition at 1 µM (SRC; [1]) was 96%, the inhibition at 1 µM (SRC; [2]) was 96% and the inhibition at 1 µM (SRC; [3]) was 95%. The inhibition at 1 µM (FLT3; [1]) was 44%, the inhibition at 1 µM (FLT3; [2]) was 42% and the inhibition at 1 µM (FLT3; [3]) was 45%. For the same molecule, the inhibition at 1 µM (FRAP1 (mTOR); [1]) was -3%, the inhibition at 1 µM (FRAP1 (mTOR); [2]) was -4% and the inhibition at 1 µM (FRAP1 (mTOR); [3]) was -2%. For the same molecule, the inhibition at 1 µM (LYN B; [1]) was 76%, the inhibition at 1 µM (LYN B; [2]) was 74% and the inhibition at 1 µM (LYN B; [3]) was 79%. It also gave an inhibition at 1 µM (LYN A; [1]) of 66%, an inhibition at 1 µM (LYN A; [2]) of 66% and an inhibition at 1 µM (CDK1/cyclin B; [1]) of 27%. The inhibition at 1 µM (CDK1/cyclin B; [2]) was 24%, the inhibition at 1 µM (CDK1/cyclin B; [3]) was 29% and the inhibition at 1 µM (KIT; [1]) was 57%. It also gave an inhibition at 1 µM (KIT; [2]) of 56%, an inhibition at 1 µM (KIT; [3]) of 58% and an inhibition at 1 µM (PLK1; [1]) of 6%. It also gave an inhibition at 1 µM (PLK1; [2]) of 5% and an inhibition at 1 µM (PLK1; [3]) of 6%.
